Consider 14 compounds from patent EP1179050B1, “METHOD FOR THE PURIFICATION OF PROTEIN KINASE BY AFFINITY CHROMATOGRAPHY” (University of Tartu, priority 1999, dated 2000).

The target in one experiment is PKA (Mus musculus, UniProt P05132). Particulars: literature values; read-out: Kd (affinity to PKA); cited from earlier work.
Experiment [1] addresses T1, Protein Kinase A (Mus musculus, UniProt P05132). Description: Inhibition constant for PKA (Table 3). The class given is biochemical.
Experiment [2] has as its target T1, Protein Kinase A. Description: Inhibition constant for PKA (Table 3). The class given is biochemical. The source holds these as a separate data set.
The target in the next experiment is Protein Kinase C. Description: Inhibition constant for PKC (Table 3). The class given is biochemical.
Experiment [3] concerns the target catalytic subunit of murine PKA (Mus musculus, UniProt P05132). Kind of experiment: Protein kinase A (PKA) activity inhibition, [γ-32P]ATP phosphocellulose paper assay. The class given is biochemical.
For a further experiment, the target named is protein kinase CK2 (Rattus norvegicus, UniProt P19139). Kind of experiment: Protein kinase CK2 activity inhibition, casein substrate, [γ-32P]ATP phosphocellulose paper assay. The class given is biochemical. Particulars: 30°C, pH 7.5, 1 mg/mL casein, 30 µM [γ-32P] ATP; n. i. means no inhibition at 100 µM concentration of ligand.
protein kinase CK2, sequence (P19139 whole entry): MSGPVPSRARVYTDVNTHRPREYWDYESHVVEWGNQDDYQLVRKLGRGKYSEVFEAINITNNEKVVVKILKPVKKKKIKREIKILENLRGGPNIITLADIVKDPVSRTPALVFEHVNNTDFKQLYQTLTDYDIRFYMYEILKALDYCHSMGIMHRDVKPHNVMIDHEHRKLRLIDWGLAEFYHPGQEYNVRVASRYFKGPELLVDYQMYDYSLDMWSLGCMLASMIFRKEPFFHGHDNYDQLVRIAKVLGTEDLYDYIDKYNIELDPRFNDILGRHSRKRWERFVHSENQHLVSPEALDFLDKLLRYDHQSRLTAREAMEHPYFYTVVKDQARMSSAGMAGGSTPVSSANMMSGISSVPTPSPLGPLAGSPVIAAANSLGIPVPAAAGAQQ
For experiment [4], the target named is Ca^2+-dependent protein kinase (CDPK-1). Kind of experiment: Ca2+-dependent protein kinase (CDPK-1) activity inhibition, [γ-32P]ATP phosphocellulose paper assay. The class given is biochemical, maize. The note with it: 30°C, pH 7.5, 50 µM substrate peptide, 30 µM [γ-32P]ATP.
The target in another experiment is protein kinase CK1. Kind of experiment: Protein kinase CK1 activity inhibition, casein substrate, [γ-32P]ATP phosphocellulose paper assay. The class given is biochemical, rat. The note with it: 30°C, pH 7.5, 1 mg/mL casein, 30 µM [γ-32P] ATP.
Experiment [5] has as its target Protein kinase C β isoform (PKC). Kind of experiment: Protein kinase C β (PKC) activity inhibition, [γ-32P]ATP phosphocellulose paper assay. Particulars: 30°C, pH 7.5, 15 µM substrate peptide, 30 µM [γ-32P] ATP. The class given is biochemical, pig.

Read-outs that look alike come from different tables or passages of the source. *1 amine or outer side, *2 acyl side, *3 side chain or, on linkers, in order; H or OH if unused. Where a SMILES comes first, the peptide text is derived from it. [ ]: non-standard residue; d: D form. The star is where a group is joined. Adenosine(5'-uronoyl) = Nc1ncnc2c1ncn2[C@@H]1O[C@H](C(=O)*)[C@@H](O)[C@H]1O; X1 = Nc1ncnc2c1ncn2[C@@H]1O[C@H](C(=O)NC[C@H](N)C(=O)*)[C@@H](O)[C@H]1O; βAsp = O=C(O)[C@H](CC(=O)[*:2])N[*:1]; Dap = NC[C@H](N)C(=O)O

One may read the Kd as the free concentration of one partner at which half of the binding sites on the other are occupied at equilibrium, for simple one-to-one binding. A word on the Ki: it is the equilibrium dissociation constant of an inhibitor or competing ligand from its target. High values mean a looser hold on the target, low ones a stronger hold on the target. In general, IC50 refers to the concentration that gives 50% inhibition.

Consider `Nc1ncnc2c1ncn2[C@@H]1O[C@H](COP(=O)(O)OP(=O)(O)OP(=O)(O)O)[C@@H](O)[C@H]1O` [ATP, adenosine triphosphate], for which, at PKA, the Kd was 25 µM. `CC(=O)NCCCCCC(=O)N[C@@H](CCCN=C(N)N)C(=O)N[C@@H](CCCNC(=N)N)C(=O)N[C@@H](CCCNC(=N)N)C(=O)N[C@@H](CCCNC(=N)N)C(=O)N[C@@H](CCCNC(=N)N)C(=O)N[C@@H](CCCN=C(N)N)C(=O)O` [Ac(amino-hexanoic acid)Arg6, Ac(Ahx)Arg6] returned a Ki at Protein Kinase A [1] of 27900 nM. As to `Nc1ncnc2c1ncn2[C@@H]1O[C@H](CO)[C@@H](O)[C@H]1O` [Adenosine], the Ki at Protein Kinase A [2] was 43100 nM; on Protein Kinase C, 43200 nM.

Regarding `NC(N)=NCCC[C@H](NC(=O)[C@H](CCCN=C(N)N)NC(=O)[C@H](CCCN=C(N)N)NC(=O)[C@H](CCCN=C(N)N)NC(=O)[C@H](CCCN=C(N)N)NC(=O)[C@@H](N)CCCN=C(N)N)C(=O)O` [Arg6], on Protein Kinase A [1], the Ki was 29500 nM. `C[C@H](NC(=O)CCNC(=O)CCNC(=O)[C@H]1O[C@@H](n2cnc3c(N)ncnc32)[C@H](O)[C@@H]1O)C(=O)N[C@@H](CCCNC(=N)N)C(=O)N[C@@H](CCCNC(=N)N)C(=O)N[C@@H](CCCNC(=N)N)C(=O)N[C@@H](CCCNC(=N)N)C(=O)N[C@@H](CCCNC(=N)N)C(=O)N[C@@H](CCCNC(=N)N)C(=O)O` [Inhibitor I, AdoC(β-Ala )2AlaArg6]: the IC50 in experiment [3] is 4.3 ± 0.3 µM; at protein kinase CK2 it was > 30 µM.

Regarding `C[C@H](NC(=O)[C@@H](N)CNC(=O)[C@@H](N)CNC(=O)[C@H]1O[C@@H](n2cnc3c(N)ncnc32)[C@H](O)[C@@H]1O)C(=O)N[C@@H](CCCNC(=N)N)C(=O)N[C@@H](CCCNC(=N)N)C(=O)N[C@@H](CCCNC(=N)N)C(=O)N[C@@H](CCCNC(=N)N)C(=O)N[C@@H](CCCNC(=N)N)C(=O)N[C@@H](CCCNC(=N)N)C(=O)O` [Inhibitor II, AdoC(Dpr)2AlaArg6] (H-[Dap](X1)ARRRRRR-OH; C-terminus assumed), the IC50 in experiment [4] worked out at 31 ± 3 µM; on protein kinase CK1, 5.6 ± 0.4 µM.

Turning to `C[C@H](NC(=O)C[C@H](NC(=O)C[C@H](NC(=O)[C@H]1O[C@@H](n2cnc3c(N)ncnc32)[C@H](O)[C@@H]1O)C(=O)O)C(=O)O)C(=O)N[C@@H](CCCNC(=N)N)C(=O)N[C@@H](CCCNC(=N)N)C(=O)N[C@@H](CCCNC(=N)N)C(=O)N[C@@H](CCCNC(=N)N)C(=O)N[C@@H](CCCNC(=N)N)C(=O)N[C@@H](CCCNC(=N)N)C(=O)O` [Inhibitor III, AdoC(β-Asp)2AlaArg6] ({Adenosine(5'-uronoyl)-βAsp-βAsp}-ARRRRRR-OH; C-terminus assumed), the IC50 in [5] was 27 ± 2 µM; in experiment [4], > 50 µM; at protein kinase CK1, > 30 µM.

`N=C(N)NCCC[C@H](NC(=O)[C@H](CCCNC(=N)N)NC(=O)[C@H](CCCNC(=N)N)NC(=O)[C@H](CCCNC(=N)N)NC(=O)[C@H](CCCNC(=N)N)NC(=O)[C@H](CCCNC(=N)N)NC(=O)CNC(=O)[C@H]1O[C@@H](n2cnc3c(N)ncnc32)[C@H](O)[C@@H]1O)C(=O)O` [Inhibitor IV, AdoCGlyArg6]: the IC50 is 4 ± 0.2 µM in experiment [3] and > 30 µM on protein kinase CK2.

As for `N=C(N)NCCC[C@H](NC(=O)[C@H](CCCNC(=N)N)NC(=O)[C@H](CCCNC(=N)N)NC(=O)[C@H](CCCNC(=N)N)NC(=O)[C@H](CCCNC(=N)N)NC(=O)[C@H](CCCNC(=N)N)NC(=O)CCCCCCCCCCNC(=O)[C@H]1O[C@@H](n2cnc3c(N)ncnc32)[C@H](O)[C@@H]1O)C(=O)O` [Inhibitor IX, AdoC(Aun)Arg6], the “IC50 (µM) CK2” value on protein kinase CK2 was “n. i.^f)”. The compound `N=C(N)NCCC[C@H](NC(=O)[C@H](CCCNC(=N)N)NC(=O)[C@H](CCCNC(=N)N)NC(=O)[C@H](CCCNC(=N)N)NC(=O)[C@H](CCCNC(=N)N)NC(=O)[C@H](CCCNC(=N)N)NC(=O)CCNC(=O)[C@H]1O[C@@H](n2cnc3c(N)ncnc32)[C@H](O)[C@@H]1O)C(=O)O` [Inhibitor V, AdoC(β-Ala)Arg6] had a 50% inhibitory concentration (IC50) in experiment [3] of 1.8 ± 0.1 µM. The “IC50 (µM) CK2” value on protein kinase CK2 is reported as “n. i.^f)”. For the compound `N=C(N)NCCC[C@H](NC(=O)[C@H](CCCNC(=N)N)NC(=O)[C@H](CCCNC(=N)N)NC(=O)[C@H](CCCNC(=N)N)NC(=O)[C@H](CCCNC(=N)N)NC(=O)[C@H](CCCNC(=N)N)NC(=O)CCCNC(=O)[C@H]1O[C@@H](n2cnc3c(N)ncnc32)[C@H](O)[C@@H]1O)C(=O)O` [Inhibitor VI, AdoC(GABA)Arg6], the results for the half-inhibitory concentration (IC50) (in experiment [3]; at protein kinase CK2) were 1.3 ± 0.2 µM and > 30 µM, respectively. As for `N=C(N)NCCC[C@H](NC(=O)[C@H](CCCNC(=N)N)NC(=O)[C@H](CCCNC(=N)N)NC(=O)[C@H](CCCNC(=N)N)NC(=O)[C@H](CCCNC(=N)N)NC(=O)[C@H](CCCNC(=N)N)NC(=O)CCCCCNC(=O)[C@H]1O[C@@H](n2cnc3c(N)ncnc32)[C@H](O)[C@@H]1O)C(=O)O` [Inhibitor VII, AdoC(Ahx)Arg6], the IC50 in [3] is 0.12 ± 0.02 µM; on protein kinase CK2 it was > 30 µM. At Protein Kinase A [1], this compound gave a Ki of 40.1 nM.

Regarding `N=C(N)NCCC[C@H](NC(=O)[C@H](CCCNC(=N)N)NC(=O)[C@H](CCCNC(=N)N)NC(=O)[C@H](CCCNC(=N)N)NC(=O)[C@H](CCCNC(=N)N)NC(=O)[C@H](CCCNC(=N)N)NC(=O)CCCCCCCNC(=O)[C@H]1O[C@@H](n2cnc3c(N)ncnc32)[C@H](O)[C@@H]1O)C(=O)O` [Inhibitor VIII, AdoC(Aoc)Arg6], the IC50 in experiment [3] was 0.24 ± 0.02 µM; at protein kinase CK2, > 30 µM.

Consider `Nc1ncnc2nc[nH]c12` [adenine], for which, on PKA, the Kd is 30 µM.
